Measurements reported in the CheMixHub viscosity set.

Assay: xn = mol fraction of the nth substance listed

CC(C)c1ccccc1 + CCCO
viscosity [mPa·s], 101 kPa
Settings	298.15 K	303.15 K	308.15 K	313.15 K	318.15 K	323.15 K
x1 = 0.013	1.976	–	1.523	–	–	–
x1 = 0.0796	1.683	–	1.334	–	–	–
x1 = 0.1684	1.406	–	1.14	–	–	–
x1 = 0.2504	1.236	–	1.011	–	–	–
x1 = 0.3462	1.092	–	0.896	–	–	–
x1 = 0.4697	0.956	–	0.791	–	–	–
x1 = 0.5994	0.854	–	0.712	–	–	–
x1 = 0.7565	0.756	–	0.657	–	–	–
x2 = 0.0996	–	0.6838	0.6412	0.602	0.5678	0.5436
x2 = 0.1997	–	0.6995	0.6529	0.612	0.5746	0.54
x2 = 0.2988	–	0.7297	0.6794	0.6333	0.592	0.5542
x2 = 0.4008	–	0.7751	0.7176	0.6661	0.6202	0.5777
x2 = 0.5012	–	0.8411	0.7731	0.7142	0.6612	0.6129
x2 = 0.6002	–	0.9284	0.847	0.7762	0.7145	0.6596
x2 = 0.7002	–	1.046	0.9475	0.8652	0.7897	0.7201
x2 = 0.8	–	1.205	1.086	0.982	0.8912	0.81
x2 = 0.8991	–	1.426	1.275	1.146	1.033	0.9322

CCCCOC(C)=O + CCCO
viscosity [mPa·s], 101 kPa
Settings	298.15 K	303.15 K	308.15 K	313.15 K
x1 = 0.0995	1.689	1.479	1.311	1.19
x1 = 0.1003	–	1.296	–	–
x1 = 0.198	–	1.062	–	–
x1 = 0.1987	1.483	1.293	1.148	1.048
x1 = 0.2976	1.308	1.148	1.025	0.942
x1 = 0.3002	–	0.912	–	–
x1 = 0.4004	–	0.821	–	–
x1 = 0.4009	1.151	1.011	0.915	0.848
x1 = 0.4989	1.023	0.903	0.822	0.77
x1 = 0.5001	–	0.755	–	–
x1 = 0.5969	0.921	0.836	0.76	0.713
x1 = 0.6002	–	0.705	–	–
x1 = 0.6993	0.833	0.766	0.7	0.67
x1 = 0.7001	–	0.674	–	–
x1 = 0.7999	–	0.654	–	–
x1 = 0.8008	0.767	0.717	0.666	0.631
x1 = 0.8932	0.717	0.68	0.636	0.61
x1 = 0.9002	–	0.641	–	–

CCCN + CCCO
Settings	viscosity [mPa·s]
298.15 K, 100 kPa, x2 = 0.0523	0.3938
298.15 K, 100 kPa, x2 = 0.1008	0.4276
298.15 K, 100 kPa, x2 = 0.2001	0.5072
298.15 K, 100 kPa, x2 = 0.2985	0.6113
298.15 K, 100 kPa, x2 = 0.3979	0.7332
298.15 K, 100 kPa, x2 = 0.5037	0.864
298.15 K, 100 kPa, x2 = 0.5989	1.002
298.15 K, 100 kPa, x2 = 0.7015	1.186
298.15 K, 100 kPa, x2 = 0.7962	1.378
298.15 K, 100 kPa, x2 = 0.9032	1.671
298.15 K, 100 kPa, x2 = 0.9626	1.843
303.15 K, 101.33 kPa, x1 = 0.0903	1.559
303.15 K, 101.33 kPa, x1 = 0.1862	1.343
303.15 K, 101.33 kPa, x1 = 0.2822	1.157
303.15 K, 101.33 kPa, x1 = 0.3807	0.9888
303.15 K, 101.33 kPa, x1 = 0.4868	0.8381
303.15 K, 101.33 kPa, x1 = 0.5804	0.7151
303.15 K, 101.33 kPa, x1 = 0.6878	0.596
303.15 K, 101.33 kPa, x1 = 0.7825	0.5123
303.15 K, 101.33 kPa, x1 = 0.901	0.417
313.15 K, 101.33 kPa, x1 = 0.0903	1.255
313.15 K, 101.33 kPa, x1 = 0.1862	1.096
313.15 K, 101.33 kPa, x1 = 0.2822	0.9516
313.15 K, 101.33 kPa, x1 = 0.3807	0.8187
313.15 K, 101.33 kPa, x1 = 0.4868	0.6961
313.15 K, 101.33 kPa, x1 = 0.5804	0.6034
313.15 K, 101.33 kPa, x1 = 0.6878	0.5101
313.15 K, 101.33 kPa, x1 = 0.7825	0.4401
313.15 K, 101.33 kPa, x1 = 0.901	0.3655
